Reference: patent US11780845B2 (Relay Therapeutics, Inc., priority 2019, dated 2023)

biological target: FGFR2 (Homo sapiens (Human), UniProt P21802); experiment: FGFR2 Biochemical Caliper Assay; conditions: not given
Protocol: Compounds of the present invention were also tested in a FGFR2 Biochemical Caliper Assay. Compounds were prepared in 10 mM DMSO solution and serially diluted into 11 concentrations by 3-fold dilution. […] 5 uL of ATP solution (100 uM) was added to start the reaction and the plate was incubated for 90 minutes, then 70 uL of stopping buffer (0.5M EDTA) was added to terminate the reaction. Each well was analyzed using EZ reader.

Sequence of FGFR2 (P21802 22-821): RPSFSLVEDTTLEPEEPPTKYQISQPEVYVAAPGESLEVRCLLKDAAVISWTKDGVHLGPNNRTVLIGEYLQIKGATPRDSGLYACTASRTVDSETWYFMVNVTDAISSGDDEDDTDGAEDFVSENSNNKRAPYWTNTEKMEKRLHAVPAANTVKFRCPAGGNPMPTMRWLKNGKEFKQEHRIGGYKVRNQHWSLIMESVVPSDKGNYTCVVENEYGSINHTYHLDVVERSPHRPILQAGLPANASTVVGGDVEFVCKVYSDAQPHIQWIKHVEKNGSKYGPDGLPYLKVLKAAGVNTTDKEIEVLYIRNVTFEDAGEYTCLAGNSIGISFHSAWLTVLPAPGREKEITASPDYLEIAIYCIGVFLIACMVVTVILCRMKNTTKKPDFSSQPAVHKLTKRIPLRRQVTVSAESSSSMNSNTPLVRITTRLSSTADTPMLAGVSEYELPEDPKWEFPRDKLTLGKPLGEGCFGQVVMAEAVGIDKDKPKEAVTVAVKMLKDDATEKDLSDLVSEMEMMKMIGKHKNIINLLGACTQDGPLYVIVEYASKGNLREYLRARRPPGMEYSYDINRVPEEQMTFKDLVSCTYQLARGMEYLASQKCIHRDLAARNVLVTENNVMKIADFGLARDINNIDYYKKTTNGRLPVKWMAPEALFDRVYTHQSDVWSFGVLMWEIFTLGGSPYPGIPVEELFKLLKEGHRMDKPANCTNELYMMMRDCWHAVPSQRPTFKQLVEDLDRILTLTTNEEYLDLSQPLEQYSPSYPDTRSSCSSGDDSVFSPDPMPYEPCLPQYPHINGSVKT

SMILES | IC50 [nM]
C=C(C)C(=O)Nc1ccc(-c2c(-c3ccc(C(=O)N4CCC[C@H]4COC)cc3)c3c(N)ncnc3n2C)cc1 [Example 357] | < 100
C=C(C)C(=O)Nc1ccc(-c2c(-c3ccc(Oc4nccc(C)n4)c(C)c3)c3c(N)ncnc3n2C)c(F)c1 [Example 479] | < 100
C=CC(=O)N1CCC(c2c(-c3ccc(-c4cnn(C)c4)cc3)c3c(N)ncnc3n2C)C1 (stereo not shown) [Example 766] | 250 to 1000
C=C(C)C(=O)Nc1ccc(-c2c(-c3ccc(Oc4nccc(C)n4)c(F)c3)c3c(N)ncnc3n2[C@H]2CCOC2)cc1 (single isomer, unassigned) [Example 538] | < 100
C=C(C)C(=O)Nc1ccc(-c2c(-c3ccc(C(=O)N4CCCC4)cc3)c3c(N)ncnc3n2C)c(C(F)F)c1 [Example 436] | < 100
C=CC(=O)N1CC=C(c2c(-c3ccc(Oc4ncccn4)cc3)c3c(N)ncnc3n2C)CC1 [Example 680] | < 100
CC#CC(=O)N1CCC(c2c(-c3ccc(Oc4cccc(C)n4)cc3)c3c(N)ncnc3n2C)C1 (stereo not shown) [Example 699] | 100 to 250
C=C(C)C(=O)Nc1ccc(-c2c(-c3ccc(C(=O)N4CCCC4)cc3OC)c3c(N)ncnc3n2C)cc1 [Example 569] | 100 to 250
C=C(C)C(=O)Nc1ccc(-c2c(-c3ccc(C(=O)NCC(C)(C)C#N)cc3)c3c(N)ncnc3n2C)cc1 [Example 373] | < 100
CCC(=O)N1CCC(n2cc(-c3c(-c4ccc(Oc5ccccc5)cc4)c4c(N)ncnc4n3C)cn2)CC1 [Example 617] | 100 to 250
C=C(C)C(=O)Nc1ccc(-c2c(-c3ccc(S(=O)(=O)NC4COC4)cc3)c3c(N)ncnc3n2C)cc1 [Example 301] | 1000 to 100000
C=C(C)C(=O)Nc1ccc(-c2c(-c3ccc(C(=O)N4CCC[C@H]4C#N)cc3)c3c(N)ncnc3n2C)c(F)c1 [Example 459] | < 100
C=C(C)C(=O)Nc1ccc(-c2c(-c3ccc(C(=O)N(C)C)cc3)c3c(N)ncnc3n2C)cc1 [Example 152] | 250 to 1000
C=C(C)C(=O)Nc1ccc(-c2c(-c3ccc(Oc4nnc(C)o4)cc3)c3c(N)ncnc3n2C)cc1 [Example 393] | 1000 to 100000
C=C(C)C(=O)Nc1ccc(-c2c(-c3ccc(-c4ccon4)cc3)c3c(N)ncnc3n2C)cc1 [Example 199] | 250 to 1000

More lines, now with the values ahead:

IC50 [nM] | SMILES
< 100 | C=C(C)C(=O)Nc1ccc(-c2c(-c3ccc(Oc4nccc(C)n4)c(Cl)c3)c3c(N)ncnc3n2C)cc1 [Example 505]
1000 to 100000 | C=CC(=O)N1CCC(c2c(-c3cnn(CCN(C)C)c3)c3c(N)ncnc3n2C)C1 (stereo not shown) [Example 715]
1000 to 100000 | C=CC(=O)N1CCC(c2c(-c3ccc(CN4CC[C@@H](O)C4)cc3)c3c(N)ncnc3n2C)C1 (stereo partly shown) [Example 724]
< 100 | C/C=C/C(=O)N1CCC(n2cc(-c3c(-c4ccc(Oc5cccc(C)n5)cc4)c4c(N)ncnc4n3C)cn2)C1 (stereo not shown) [Example 640]
250 to 1000 | C=C(C)C(=O)Nc1ccc(-c2c(-c3ccc([S+]([O-])C4CC4)cc3)c3c(N)ncnc3n2C)cc1 (stereo not shown) [Example 160]
100 to 250 | C=CC(=O)N1CCC(c2[nH]c3ncnc(N)c3c2-c2ccc(Oc3ccc(C)cn3)cc2)C1 (stereo not shown) [Example 775]
1000 to 100000 | C=C(C)C(=O)Nc1ccc(-c2c(C3=CC[C@@H](C(=O)N4CCCC4)CC3)c3c(N)ncnc3n2C)cc1 (single isomer, unassigned) [Example 397]
100 to 250 | C=CC(=O)N1CCC(c2c(-c3ccc(Oc4ncccn4)cc3)c3c(N)ncnc3n2C)C1 (stereo not shown) [Example 682]
< 100 | C=CC(=O)Nc1ccc(-c2c(-c3cc(C)c(Oc4ncccn4)c(OC)c3)c3c(N)ncnc3n2C)cc1 [Example 120]
< 100 | C=C(C)C(=O)Nc1ccc(-c2c(-c3ccc(C(=O)N4CCCC(C)C4)cc3)c3c(N)ncnc3n2C)cc1 (stereo not shown) [Example 255]
1000 to 100000 | C=C(C)C(=O)Nc1ccc(-c2c(-c3ccc(Cn4cc(C)cn4)cc3)c3c(N)ncnc3n2C)cc1 [Example 263]
1000 to 100000 | C=CC(=O)Nc1ccc(-c2c(C3CCC(C(=O)NC)CC3)c3c(N)ncnc3n2C)cc1 (stereo not shown) [Example 302]
< 100 | CC#CC(=O)N1CCC(c2c(-c3ccc(C(=O)N4CCCC4)cc3)c3c(N)ncnc3n2C)C1 (stereo not shown) [Example 747]
< 100 | C=C(C)C(=O)Nc1ccc(-c2c(C3=CC[C@@H](C(=O)N4CC5CC5C4)CC3)c3c(N)ncnc3n2C)cc1 (single isomer, unassigned) [Example 592]

system: SNU16 cells; experiment: SNU16 Cancer Cell Line Proliferation Assay; type: cell-based; conditions: Homo sapiens; SNU-16 cells
Method in brief: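 SNU16 cells were seeded, held 24 h at 37 degrees, then dosed with an 11-point 3-fold dilution series prepared from a 10 mM DMSO stock. After 96 h incubation, viability was read by CellTiter Glo luminescence.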

SMILES | IC50 [nM]
C=C(C)C(=O)Nc1ccc(-c2c(-c3ccc(C(=O)N4CCC[C@H]4COC)cc3)c3c(N)ncnc3n2C)cc1 [Example 357] | ≤ 100
C=C(C)C(=O)Nc1ccc(-c2c(-c3ccc(Oc4nccc(C)n4)c(C)c3)c3c(N)ncnc3n2C)c(F)c1 [Example 479] | ≤ 100
C=CC(=O)N1CCC(c2c(-c3ccc(-c4cnn(C)c4)cc3)c3c(N)ncnc3n2C)C1 (stereo not shown) [Example 766] | 250 to 1000
C=C(C)C(=O)Nc1ccc(-c2c(-c3ccc(Oc4nccc(C)n4)c(F)c3)c3c(N)ncnc3n2[C@H]2CCOC2)cc1 (single isomer, unassigned) [Example 538] | ≤ 100
C=C(C)C(=O)Nc1ccc(-c2c(-c3ccc(C(=O)N4CCCC4)cc3)c3c(N)ncnc3n2C)c(C(F)F)c1 [Example 436] | 100 to 250
C=CC(=O)N1CC=C(c2c(-c3ccc(Oc4ncccn4)cc3)c3c(N)ncnc3n2C)CC1 [Example 680] | ≤ 100
CC#CC(=O)N1CCC(c2c(-c3ccc(Oc4cccc(C)n4)cc3)c3c(N)ncnc3n2C)C1 (stereo not shown) [Example 699] | ≤ 100
C=C(C)C(=O)Nc1ccc(-c2c(-c3ccc(C(=O)N4CCCC4)cc3OC)c3c(N)ncnc3n2C)cc1 [Example 569] | 100 to 250
C=C(C)C(=O)Nc1ccc(-c2c(-c3ccc(C(=O)NCC(C)(C)C#N)cc3)c3c(N)ncnc3n2C)cc1 [Example 373] | ≤ 100
CCC(=O)N1CCC(n2cc(-c3c(-c4ccc(Oc5ccccc5)cc4)c4c(N)ncnc4n3C)cn2)CC1 [Example 617] | 250 to 1000
C=C(C)C(=O)Nc1ccc(-c2c(-c3ccc(S(=O)(=O)NC4COC4)cc3)c3c(N)ncnc3n2C)cc1 [Example 301] | 250 to 1000
C=C(C)C(=O)Nc1ccc(-c2c(-c3ccc(C(=O)N4CCC[C@H]4C#N)cc3)c3c(N)ncnc3n2C)c(F)c1 [Example 459] | ≤ 100
C=C(C)C(=O)Nc1ccc(-c2c(-c3ccc(C(=O)N(C)C)cc3)c3c(N)ncnc3n2C)cc1 [Example 152] | 250 to 1000
C=C(C)C(=O)Nc1ccc(-c2c(-c3ccc(Oc4nnc(C)o4)cc3)c3c(N)ncnc3n2C)cc1 [Example 393] | 250 to 1000
C=C(C)C(=O)Nc1ccc(-c2c(-c3ccc(-c4ccon4)cc3)c3c(N)ncnc3n2C)cc1 [Example 199] | 250 to 1000

The remaining lines, values ahead:

IC50 [nM] | SMILES
≤ 100 | C=C(C)C(=O)Nc1ccc(-c2c(-c3ccc(Oc4nccc(C)n4)c(Cl)c3)c3c(N)ncnc3n2C)cc1 [Example 505]
1000 to 100000 | C=CC(=O)N1CCC(c2c(-c3cnn(CCN(C)C)c3)c3c(N)ncnc3n2C)C1 (stereo not shown) [Example 715]
1000 to 100000 | C=CC(=O)N1CCC(c2c(-c3ccc(CN4CC[C@@H](O)C4)cc3)c3c(N)ncnc3n2C)C1 (stereo partly shown) [Example 724]
≤ 100 | C/C=C/C(=O)N1CCC(n2cc(-c3c(-c4ccc(Oc5cccc(C)n5)cc4)c4c(N)ncnc4n3C)cn2)C1 (stereo not shown) [Example 640]
250 to 1000 | C=C(C)C(=O)Nc1ccc(-c2c(-c3ccc([S+]([O-])C4CC4)cc3)c3c(N)ncnc3n2C)cc1 (stereo not shown) [Example 160]
1000 to 100000 | C=CC(=O)N1CCC(c2[nH]c3ncnc(N)c3c2-c2ccc(Oc3ccc(C)cn3)cc2)C1 (stereo not shown) [Example 775]
250 to 1000 | C=C(C)C(=O)Nc1ccc(-c2c(C3=CC[C@@H](C(=O)N4CCCC4)CC3)c3c(N)ncnc3n2C)cc1 (single isomer, unassigned) [Example 397]
≤ 100 | C=CC(=O)N1CCC(c2c(-c3ccc(Oc4ncccn4)cc3)c3c(N)ncnc3n2C)C1 (stereo not shown) [Example 682]
≤ 100 | C=CC(=O)Nc1ccc(-c2c(-c3cc(C)c(Oc4ncccn4)c(OC)c3)c3c(N)ncnc3n2C)cc1 [Example 120]
≤ 100 | C=C(C)C(=O)Nc1ccc(-c2c(-c3ccc(C(=O)N4CCCC(C)C4)cc3)c3c(N)ncnc3n2C)cc1 (stereo not shown) [Example 255]
250 to 1000 | C=C(C)C(=O)Nc1ccc(-c2c(-c3ccc(Cn4cc(C)cn4)cc3)c3c(N)ncnc3n2C)cc1 [Example 263]
250 to 1000 | C=CC(=O)Nc1ccc(-c2c(C3CCC(C(=O)NC)CC3)c3c(N)ncnc3n2C)cc1 (stereo not shown) [Example 302]
≤ 100 | CC#CC(=O)N1CCC(c2c(-c3ccc(C(=O)N4CCCC4)cc3)c3c(N)ncnc3n2C)C1 (stereo not shown) [Example 747]
≤ 100 | C=C(C)C(=O)Nc1ccc(-c2c(C3=CC[C@@H](C(=O)N4CC5CC5C4)CC3)c3c(N)ncnc3n2C)cc1 (single isomer, unassigned) [Example 592]
